71 compounds from article PMC6792352, “Limited Chemical Structural Diversity Found to Modulate Thyroid Hormone Receptor in the Tox21 Chemical Library” (Environmental Health Perspectives, 2019) can be followed below.

Where a name gives a salt, the structure may show the parent alone. Some results are limits rather than exact numbers.

One series can be described thus: in vitro. The conditions noted are these: rat, gh3-tre-luc cells, AC50 (uM) modified / 1000.
As a reminder, the CC50 is the concentration giving 50% cytotoxicity. A lower CC50 goes with harm at low concentration. The compound `Nc1ncnc2c1ncn2CCOCP(=O)(O)O` [Adefovir] returned a CC50 at 24 h greater than 50 µM. `Nc1ncnc2nc[nH]c12` [Adenine] showed a CC50 at 24 h greater than 90 µM.

`Nc1ncnc2c1ncn2[C@@H]1O[C@H](COP(=O)(O)O)[C@@H](O)[C@H]1O` [Adenosine 5'-phosphate] gave a half-maximal cytotoxic concentration (CC50) at 24 h greater than 50 µM. On the same count and under the same terms, the value for `Nc1ncnc2c1ncn2[C@@H]1O[C@H](COP(=O)(O)OP(=O)(O)OP(=O)(O)O)[C@@H](O)[C@H]1O` [Adenosine triphosphate] was greater than 50 µM; that for `Nc1ncnc2c1ncn2[C@@H]1O[C@H](CO)[C@@H](O)[C@H]1O` [Adenosine] was greater than 50 µM; that for `O=S(O)CNc1ccc(S(=O)(=O)c2ccc(NCS(=O)O)cc2)cc1` [Adesulfone sodium] was greater than 50 µM. Turning to `NC(=O)CCCCC(N)=O` [Adipamide], the CC50 at 24 h is greater than 90 µM. The compound `CCN(CC)CCOC(=O)C(c1ccccc1)c1ccccc1` [Adiphenine hydrochloride] showed a CC50 at 24 h of 43.3 µM. On to `CNCC(=O)c1ccc(O)c(O)c1` [Adrenone], for which the CC50 at 24 h was greater than 50 µM. On to `CC(=O)NC(Cc1ccccc1)C(=O)O` (stereo not shown) [Afalanine], for which the half-maximal cytotoxic concentration (CC50) at 24 h is greater than 50 µM.

For the compound `CCCCCCCCCCCCCCCCC(C(=O)O)C(O)(CC(=O)O)C(=O)O` (stereo not shown) [Agaric acid], it took 29.5 µM to reach half-maximal cytotoxicity (CC50 at 24 h).

For the compound `CC[C@H]1[C@@H]2C[C@H]3[C@@H]4N(C)c5ccccc5[C@]45C[C@@H]([C@H]2[C@H]5O)N3[C@@H]1O` [Ajmaline], the cytotoxic concentration (CC50) at 24 h was greater than 20 µM. Still for that read-out and setting: next, `CC(=O)SC[C@@H](C)C(=O)N1CCC[C@H]1C(=O)N[C@@H](Cc1ccccc1)C(=O)O` [Alacepril]: greater than 50 µM; `C[C@H](N)C(=O)N[C@@H](C)P(=O)(O)O` [Alafosfalin]: greater than 50 µM; `CC(N)C(=O)OC(C)(C)Cc1ccc(Cl)cc1` (stereo not shown) [Alaproclate]: 25.5 µM. With `CC(C)(C)NCC(O)c1ccc(O)c(CO)c1` (stereo not shown) [Albuterol], the half-maximal cytotoxic concentration (CC50) at 24 h is greater than 90 µM.

`C=CCN1C(=O)C(CC(C)C)NC1=S` (stereo not shown) [Albutoin]: the 50% cytotoxic concentration (CC50) at 24 h was greater than 50 µM. The same measure, in the same setting: the value for `C=CCOc1ccc(CC(=O)O)cc1Cl` [Alclofenac] was greater than 50 µM. Still for that read-out and setting: the value for `CCC(=O)OCC(=O)[C@@]1(OC(=O)CC)[C@H](C)C[C@H]2[C@H]3[C@H]([C@@H](O)C[C@@]21C)[C@@]1(C)C=CC(=O)C=C1C[C@H]3Cl` [Alclometasone dipropionate] was greater than 20 µM. `C=CC[N@@+]12CC[C@@]34c5ccccc5N5/C=C6/[C@H]7C[C@H]8[C@@]9(CC[N@@+]8(CC=C)C/C7=C/CO)c7ccccc7N(/C=C(/[C@@H](C[C@@H]31)/C(=C\CO)C2)[C@H]54)[C@@H]69` [Alcuronium chloride] returned a CC50 at 24 h greater than 20 µM. As to `CSC(C)(C)/C=N/O` [Aldicarb oxime], the cytotoxic concentration (CC50) at 24 h was greater than 90 µM. Still for that read-out and setting: the value for `CNC(=O)ON=CC(C)(C)[S+](C)[O-]` (stereo not shown) [Aldicarb sulfoxide] was greater than 90 µM; that for `CNC(=O)O/N=C/C(C)(C)SC` [Aldicarb] was greater than 90 µM. `CCCCC(CC)CNC(=N)NC(=N)NCCCCCCNC(=N)NC(=N)NCC(CC)CCCC` (stereo not shown) [Alexidine dihydrochloride] had a CC50 at 24 h of 7.36 µM. Compound `C=C1/C(=C\C=C2/CCC[C@]3(C)[C@@H]([C@H](C)CCCC(C)C)CC[C@@H]23)C[C@@H](O)C[C@@H]1O` [Alfacalcidol] had a CC50 at 24 h of 14.8 µM. In turn, `CC(=O)OCC(=O)[C@H]1CC[C@H]2[C@@H]3CC[C@H]4C[C@H](O)CC[C@]4(C)[C@H]3C(=O)C[C@]12C` [Alfadolone acetate] displayed a CC50 at 24 h greater than 20 µM. Consider `COc1cc2nc(N(C)CCCNC(=O)C3CCCO3)nc(N)c2cc1OC` (stereo not shown) [Alfuzosin hydrochloride], for which the cytotoxic concentration (CC50) at 24 h is greater than 20 µM. Same read-out and setting: next, `C=CCc1cc(OC)c(O)c(C(=O)NCCO)c1` [Alibendol]: greater than 50 µM. Still for that read-out and setting: next, `Cc1ccccc1C(=O)N1CC/C(=N\OS(=O)(=O)O)c2ccc(Cl)cc21` [Alilusem potassium]: greater than 50 µM; `C=CCN(C1=NCCN1)c1c(Cl)cccc1Cl` [Alinidine]: greater than 50 µM; `COCCCOc1cc(C[C@@H](C[C@H](N)[C@@H](O)C[C@H](C(=O)NCC(C)(C)C(N)=O)C(C)C)C(C)C)ccc1OC` [Aliskiren hydrochloride]: greater than 50 µM. As to `O=C(O)c1cc(N=Nc2ccc([N+](=O)[O-])cc2)ccc1O` [Alizarin Yellow R], the midpoint of cytotoxicity, the CC50 at 24 h, lay at 58 µM. With `O=C1c2ccccc2C(=O)c2c1ccc(O)c2O` [Alizarin], the half-maximal cytotoxic concentration (CC50) at 24 h was greater than 50 µM. The same measure, in the same setting: the value for `C=CCC1=C(C)C(OC(=O)[C@@H]2[C@@H](C=C(C)C)C2(C)C)CC1=O` (stereo partly shown) [Allethrin] was 53.2 µM. `C=CCOc1cc(Cl)ccc1C(=O)NCCN(CC)CC` [Alloclamide] returned a cytotoxic concentration (CC50) at 24 h of 9.52 µM. Same read-out and setting: next, `COC(=O)[C@@H]1[C@H]2CC[C@@H](C[C@H]1OC(=O)c1ccccc1)N2C` [Allococaine hydrochloride]: greater than 50 µM; `Oc1ncnc2[nH]ncc12` [Allopurinol]: greater than 90 µM; `C=CCON=C(CCC)C1C(=O)CC(C)(C)C(C(=O)OC)C1=O` (stereo not shown) [Alloxydim-sodium]: greater than 90 µM. On the same count and under the same terms, next, `COc1cc(S(=O)(=O)O)c(C)cc1N=Nc1c(O)ccc2cc(S(=O)(=O)O)ccc12` [Allura Red C.I.16035]: 37.7 µM; `C=CCOCC(O)CCl` (stereo not shown) [Allyl 3-chloro-2-hydroxypropyl ether]: greater than 90 µM; `C=CCCC(=O)/C=C/C1C(C)=CCCC1(C)C` (stereo not shown) [Allyl Ionone]: 80.7 µM.

The compound `C=CCOC(C)=O` [Allyl acetate] registered a cytotoxic concentration (CC50) at 24 h greater than 90 µM.

The compound `C=CCOCC1CO1` (stereo not shown) [Allyl glycidyl ether] registered a CC50 at 24 h greater than 90 µM.

For the compound `C=CCN=C=S` [Allyl isothiocyanate], the CC50 at 24 h is greater than 90 µM. The same measure, in the same setting: the value for `C=CCOC(=O)CC(C)C` [Allyl isovalerate] was greater than 90 µM; that for `C=CCOC(=O)C(=C)C` [Allyl methacrylate] was greater than 100 µM.

Consider `C=CCOC(=O)CCCCCCCC` [Allyl nonanoate], for which the 50% cytotoxic concentration (CC50) at 24 h is greater than 90 µM.

The compound `C=CCSSCCC` [Allyl propyl disulfide] gave a CC50 at 24 h greater than 90 µM.

In turn, `C=CC[C@]1(O)CC[C@H]2[C@@H]3CCC4=CCCC[C@@H]4[C@H]3CC[C@@]21C` [Allylestrenol] returned a 50% cytotoxic concentration (CC50) at 24 h of 41.6 µM.

With `C=CCNC(N)=S` [Allylthiourea], the CC50 at 24 h was greater than 90 µM.

Regarding `CN(C)CCc1c[nH]c2ccc(CS(=O)(=O)N3CCCC3)cc12` [Almotriptan], the CC50 at 24 h was greater than 50 µM.

The compound `O=C1c2cccc(O)c2C(=O)c2c(O)cc(CO)cc21` [Aloe-emodin] gave a cytotoxic concentration (CC50) at 24 h greater than 90 µM. The compound `O=C1c2c(O)cccc2[C@H]([C@@H]2O[C@H](CO)[C@@H](O)[C@H](O)[C@H]2O)c2cc(CO)cc(O)c21` [Aloin A] returned a CC50 at 24 h greater than 50 µM. Same read-out and setting: the value for `O=C1c2c(O)cccc2C([C@@H]2O[C@H](CO)[C@@H](O)[C@H](O)[C@H]2O)c2cc(CO)cc(O)c21` (stereo partly shown) [Aloin] was greater than 50 µM; that for `Cc1[nH]cnc1CN1CCc2c(c3ccccc3n2C)C1=O` [Alosetron hydrochloride] was greater than 50 µM; that for `Cc1cn([C@H]2C[C@H](F)[C@@H](CO)O2)c(=O)[nH]c1=O` [Alovudine] was greater than 50 µM. In the case of `CCCN(CCC)C(=O)Cc1c(-c2ccc(Cl)cc2)nc2ccc(Cl)cn12` [Alpidem], the half-maximal cytotoxic concentration (CC50) at 24 h was greater than 50 µM.

Turning to `Cc1nnc2n1-c1ccc(Cl)cc1C(c1ccccc1)=NC2` [Alprazolam], the CC50 at 24 h was greater than 50 µM. The same measure, in the same setting: the value for `C=CCc1ccccc1OCC(O)CNC(C)C` (stereo not shown) [Alprenolol] was greater than 50 µM; that for `CCCCC[C@H](O)/C=C/[C@H]1[C@H](O)CC(=O)[C@@H]1CCCCCCC(=O)O` [Alprostadil] was greater than 20 µM. The same measure, in the same setting: next, `O=C(O)CN1C(=O)c2cccc3cccc(c23)C1=O` [Alrestatin]: greater than 50 µM; `O=C(c1ccc(F)cc1)C1CCN(CCn2c(=S)[nH]c3ccccc3c2=O)CC1` [Altanserin hydrochloride]: greater than 50 µM; `C=CCSCC1Nc2cc(Cl)c(S(N)(=O)=O)cc2S(=O)(=O)N1` (stereo not shown) [Althiazide]: greater than 50 µM.

Staying with this series, now noted: rat, gh3-tre-luc cells, AC50 (uM) modified / 1000, Tox21_110001=Tox21_112258; viability, 1 nM T3 present, 24 h.
In turn, `O=C(C[S+]([O-])C(c1ccccc1)c1ccccc1)NO` (stereo not shown) [Adrafinil] registered a CC50 at 24 h greater than 50 µM.

Still in this series, the particulars now being: rat, gh3-tre-luc cells, AC50 (uM) modified / 1000, Tox21_110001=Tox21_112447; viability, 1 nM T3 present, 24 h.
`Cc1ccccc1-n1c(CF)nc2ccc(N)cc2c1=O` [Afloqualone] showed a 50% cytotoxic concentration (CC50) at 24 h greater than 50 µM.

The series is the same for the next values; noted with them: rat, gh3-tre-luc cells, AC50 (uM) modified / 1000, Tox21_110001=Tox21_200200; viability, 1 nM T3 present, 24 h.
`C=CCO` [Allyl alcohol] yielded a half-maximal cytotoxic concentration (CC50) at 24 h greater than 100 µM.

The series is the same for the next values; noted with them: rat, gh3-tre-luc cells, AC50 (uM) modified / 1000, Tox21_110001=Tox21_200801; viability, 1 nM T3 present, 24 h.
With `C=CCBr` [Allyl bromide], the cytotoxic concentration (CC50) at 24 h is greater than 100 µM.

Still in this series, the particulars now being: rat, gh3-tre-luc cells, AC50 (uM) modified / 1000, Tox21_110001=Tox21_200824; viability, 1 nM T3 present, 24 h.
Compound `C=CCCl` [Allyl chloride] displayed a CC50 at 24 h greater than 100 µM.

The series is the same for the next values; noted with them: rat, gh3-tre-luc cells, AC50 (uM) modified / 1000, Tox21_110001=Tox21_201129; viability, 1 nM T3 present, 24 h.
As for `C=CCOC(=O)c1ccccc1N` [Allyl anthranilate], the 50% cytotoxic concentration (CC50) at 24 h was greater than 90 µM.

Still in this series, the particulars now being: rat, gh3-tre-luc cells, AC50 (uM) modified / 1000, Tox21_110001=Tox21_201338; viability, 1 nM T3 present, 24 h.
Regarding `CNC(=O)ON=CC(C)(C)S(C)(=O)=O` [Aldoxycarb], the CC50 at 24 h is greater than 90 µM.

Staying with this series, now noted: rat, gh3-tre-luc cells, AC50 (uM) modified / 1000, Tox21_110001=Tox21_202072; viability, 1 nM T3 present, 24 h.
Regarding `ClC1=C(Cl)[C@]2(Cl)[C@H]3[C@H]([C@@H]4C=C[C@H]3C4)[C@@]1(Cl)C2(Cl)Cl` [Aldrin], the CC50 at 24 h was 51.6 µM.

Still in this series, the particulars now being: rat, gh3-tre-luc cells, AC50 (uM) modified / 1000, Tox21_110001=Tox21_300172; viability, 1 nM T3 present, 24 h.
As for `ClC1=C(Cl)[C@]2(Cl)[C@H]3[C@H]([C@@H]4C=C[C@H]3C4)[C@@]1(Cl)C2(Cl)Cl` [Aldrin], the 50% cytotoxic concentration (CC50) at 24 h was 46.1 µM.

Still in this series, the particulars now being: rat, gh3-tre-luc cells, AC50 (uM) modified / 1000, Tox21_110001=Tox21_303507; viability, 1 nM T3 present, 24 h.
`C=CCO` [Allyl alcohol]: the CC50 at 24 h was greater than 90 µM.
